Data reported in US9644010B2, “LY6K epitope peptides for TH1 cells and vaccines containing the same” (ONCOTHERAPY SCIENCE, INC., priority 2012, dated 2017).

Columns and labels:
HLA-A24 Tgm = assay: In vivo cross-priming assay, ex vivo IFN-gamma ELISPOT; parameters: species or system mice; details: 100 micro-g/mouse in IFA
Text: HLA-A24 Tgm were kindly provided by Dr. F. A. Lemonnier (Jung K O, et al. J Virol; 86: 7616-24). For peptide vaccination, the mice were intradermally injected at the base of the tail with LY6K (172-191) LP (100 micro-g/mouse) solution emulsified in IFA at 7-day intervals. Seven days after the second vaccinations with LY6K (172-191) LP, mice were sacrificed to obtain inguinal lymphocytes and CD8^+ T cells were positively isolated with magnetic microbeads. The number of IFN-gamma producing CD8^+ T cells (3×10^5/well) upon stimulation with LY6K-A24 (177-186) SP or HIV-A24 SP-pulsed C1R-A2402 cells (2×10^4/well) was counted by ELISPOT assay.
HLA-A24 (HHH) transgenic mice (Tgm) were kindly provided by Dr. F. A. Lemonnier (Jung K O, et al. J Virol; 86: 7616-24). Mice were intradermally injected at the base of the tail with LY6K (172-191) LP solution (100 micro-g/mouse) emulsified in incomplete Freund's adjuvant (IFA), third times at 7-day intervals. […] The number of IFN-gamma producing CD8^+ T cells (1×10^5 cells/well) in response to stimulation with LY6K-A24 (177-186) SP-pulsed BM-DCs (2×10^4 cells/well) was counted by ex vivo ELISPOT assay (Inoue M, et al. Immunol Lett 2009; 126:67-72; Harao M, et al. Int J Cancer 2008; 123:2616-25.).

[1] = tested on: LY6K-specific T cells in PBMCs; assay: Assessment of LY6K-specific CD4+ T cell responses in head and neck cancer patients, IFN-gamma ELISPOT after 1 week stimulation of PBMCs with LPs; format: cell-based, human
Experimental: Two phase I clinical trials of peptide-based cancer immunotherapy were reviewed and approved by the Institutional Review Board of Kumamoto University, Kumamoto, Japan (approval no. 841 and 1124). […] Tumor stage and grading were determined according to the International Union against cancer (UICC) clarification. The patients suffered from inoperable advanced head and neck cancer with recurrent or metastatic tumors who had been resistant to standard therapy were enrolled in one trial (841). The patients suffered from operable advanced head and neck cancer were enrolled in another trial (1124). These patients in this trial (1124) had been treated with postoperative peptide-vaccine immunotherapy. The patients suffered from inoperable advanced HNMT with recurrent or metastatic tumors and were resistant to standard therapy; they were enrolled in the trial under University Hospital Medical Information Network Clinical Trials Registry (UMIN-CTR) number 000008379 (CTR-8379). HNMT patients with radical resection were enrolled in the trial under UMIN-CTR number 000008380 (CTR-8380). In the latter trial, HNMT patients were treated with postoperative peptide vaccine combined with S-1, ifosfamide, or doxorubicin. […]
The PBMCs from cancer patients or healthy donors were cultured with 10 micro-g/ml of mixture of LY6K-derived LPs in a 24-well plate (2×10^6/well) in AIM-V supplemented with 5% human decomplemented plasma and IL-7 and IL-2 were added at day 0 and day 2. After 1 week of cell culture, the PBMCs were collected and the presence of LY6K-specific T cells was measured by IFN-gamma ELISPOT assays. […] The number of specific T cells expressed as spot-forming cells/10^5 cells was calculated after subtracting negative control values (background). […] Responses were evaluated to be positive when IFN-gamma were more than 10 and more than 2-fold the background. […] And responses were evaluated to be positive when IFN-gamma were more than 15 and more than 2-fold the background. […]

In the case of KCCKIRYCNLEGPPINSSVF [LY6K (172-191)], the “IFN-gamma production by CD8+ T-cells of immunized mice upon stimulation with LY6K-A24 (177-186) SP-pulsed BM-DCs” value (HLA-A24 Tgm; HLA-A24 Tgm immunized 3 times) is reported as “produced IFN-gamma”, the “IFN-gamma production by CD8+ T cells of immunized mice upon re-stimulation with LY6K-A24 (177-186) SP-pulsed C1R-A2402 cells” value (HLA-A24 Tgm; HLA-A24 Tgm immunized twice, base of tail, 7-day intervals, inguinal LN) is reported as “produced IFN-gamma specifically” and the “number of LP-specific spots in vaccinated patients compared with HNMT patients before vaccination” value ([1]; FIG. 8D, Mann-Whitney U test) is reported as “significantly larger”. For the same sequence, the “numbers of specific IFN-gamma spots in vaccinated patients compared with healthy donors” value ([1]; FIG. 8D, Mann-Whitney U test) was “significantly larger” and the “frequency of LP-specific immune response in HNMT patients after vaccination compared with before vaccination” value ([1]; FIG. 8E, Fisher's exact probability test) was “significantly higher”.
